≈ marks a conversion by molar mass, not a printed value. Like-named read-outs stand apart in the source and are kept apart here. Blank lines part the entries; values can stand above or below the compound they belong to. Where a SMILES comes first, the peptide text is derived from it.
Key:
[1] = tested on: P. aeruginosa (ATCC19660)
P. acnes [2] = assay: MIC test by microdilution assay against P. acnes; assay type: cell-based, Propionibacterium acnes
P. acnes [3] = conditions: background, literature; cited from earlier work
[4] = tested on: P. aeruginosa derived from patient specimens
[5] = tested on: P. aeruginosa derived from patient specimens; assay: microbe, parasite or virus in culture; conditions: Pseudomonas aeruginosa, read-out: MIC against P. aeruginosa
in vitro = conditions: human, HK cells (human keratinocytes)
[6] = tested on: human keratinocytes (HK cells)
P. acnes [7] = assay: P. acnes-induced inflammatory response in ICR mouse ears; assay type: in vivo; conditions: ICR mice
Protocol: Right ears of ICR mice (Harlan, Indianapolis, Ind.) were intradermally injected with P. acnes (1×10^8 CFU per 20 μl in Phosphate-Buffered Saline (PBS)) with or without HPA3NT3 peptide (6.4 μM). Left ears of the same mice were injected with 20 μl of PBS. In negative control ICR mice, right ears remained untreated while left ears received intradermal injections of PBS. For histological observation, the cross-sectioned ear was stained with hematoxylin and eosin (Sigma) and viewed on a Zeiss Axioskop2 plus microscope (Carl Zeiss) 24 to 48 hours after injection. The increase in ear thickness was measured using a micro caliper (Mitutoyo 547-400S; MSI Viking Gage, Charleston, S.C.) prior to, and at 24, 48, and 72 hours post injection. The percent difference in ear thickness (right vs. left ear) was determined by an induced ear inflammation ratio (percent difference in the experimental ear divided by the percent difference in the control ears). Ten milligrams of tissue from an 8 mm biopsy that was punched from ears at 24 hours after P. acnes injection was homogenized in 250 μl of sterile PBS with a tissue grinder. CFUs of P. acnes were determined by plating serial dilutions of the homogenate on an agar plate under anaerobic conditions for 48 hours.

IL-8 = IL-8 mRNA in P. aeruginosa-infected human corneal epithelial cells; assay type: cell-based; conditions: HCET cells
Protocol: Human corneal epithelial cells (HCET cells) were exposed to 2×10^4 CFU/mL tympanitis-derived P. aeruginosa either in the presence or absence of antimicrobial peptides. Specifically, HP(2-20) and its derivatives HPA3NT3, ISFGW, and F1AF8A were added to samples at concentration of 3.2 μM. Moreover, a cathilocidin-derived peptide (P5) was also added to some conditions at a concentration of 1.6 μM.

M. furfur = assay: MIC microdilution assay against M. furfur
S. aureus = assay: microbe, parasite or virus in culture; conditions: Staphylococcus aureus
[8] = Cutibacterium acnes, strain ATCC6919, read-out: MIC against P. acnes
[9] = Cutibacterium acnes, strain ATCC11828, read-out: MIC against P. acnes
[10] = clinical isolate Patient #2 (tympanitis)
[11] = clinical isolate Patient #1 (tympanitis)

- MIC against P. aeruginosa (ATCC19660) [1]: 0.78 µM (≈ 1.75 µg/mL)
SMILES: CC(C)C[C@H](NC(=O)[C@H](CCCCN)NC(=O)[C@H](CCCCN)NC(=O)[C@H](CC(C)C)NC(=O)[C@H](CC(C)C)NC(=O)[C@H](CCCCN)NC(=O)[C@H](CCCCN)NC(=O)[C@H](CC(C)C)NC(=O)[C@H](CC(C)C)NC(=O)[C@@H]1CCCN1C(=O)[C@H](CCCCN)NC(=O)[C@H](CCCCN)NC(=O)[C@H](CC(C)C)NC(=O)[C@H](CC(C)C)NC(=O)[C@H](CCCCN)NC(=O)[C@H](CCCCN)NC(=O)[C@H](Cc1c[nH]c2ccccc12)NC(=O)[C@@H](N)CCCCN)C(N)=O [p5] (H-KWKKLLKKPLLKKLLKKL-NH2; N-terminus and C-terminus assumed)

- MIC (P. acnes [2]; [8]): 125 µM (≈ 30.3 µg/mL)
- MIC (P. acnes [2]; [9]): 62.5 µM (≈ 15.1 µg/mL)
- MIC (P. acnes [2]; Cutibacterium acnes, text summary of Table 1A, strain not named, read-out: MIC value against P. acnes): 62.5 µM (≈ 15.1 µg/mL)
SMILES: O=C(OOC(=O)c1ccccc1)c1ccccc1 [Benzoyl Peroxide, benzoyl peroxide]
- minimal inhibitory concentration (MIC) (P. acnes [3]): 150 µg/mL (≈ 619 µM)

SMILES: CN[C@H](CC(C)C)C(=O)N[C@H]1C(=O)N[C@@H](CC(N)=O)C(=O)N[C@H]2C(=O)N[C@H]3C(=O)N[C@H](C(=O)N[C@H](C(=O)O)c4cc(O)cc(O)c4-c4cc3ccc4O)[C@H](O)c3ccc(c(Cl)c3)Oc3cc2cc(c3O[C@@H]2O[C@H](CO)[C@@H](O)[C@H](O)[C@H]2O[C@H]2C[C@](C)(N)[C@H](O)[C@H](C)O2)Oc2ccc(cc2Cl)[C@H]1O [Vancomycin, vancomycin]
- MIC against P. aeruginosa [4, 10]: >32 µg/mL
- MIC [5]: > 32 µg/mL

SMILES: CC[C@H](C)[C@H](NC(=O)[C@H](CCCCN)NC(=O)[C@H](CCCCN)NC(=O)[C@H](Cc1ccccc1)NC(=O)[C@H](CC(C)C)NC(=O)[C@H](CCCCN)NC(=O)[C@H](CCCCN)NC(=O)[C@H](CC(C)C)NC(=O)[C@H](CCCNC(=N)N)NC(=O)[C@H](CCCCN)NC(=O)[C@@H](N)Cc1ccccc1)C(=O)N[C@@H](Cc1c[nH]c2ccccc12)C(=O)N[C@@H](CC(N)=O)C(=O)N[C@@H](Cc1c[nH]c2ccccc12)C(=O)N[C@@H](CCCCN)C(=O)O [HPA3NT3] (H-FKRLKKLFKKIWNWK-OH)
- viability at 24 h, 1.6 µM (in vitro): 100%
- viability at 24 h, 3.2 µM (in vitro): 100%
- viability at 24 h, 6.4 µM (in vitro): 100%
- MIC against P. aeruginosa ([4]; derived from patient specimens): 16 µg/mL (≈ 7.75 µM)
- Cell viability [6]: 100%
- cytotoxicity to HK cells [6]: only minimal cytotoxicity
- ear thickness or inflammation, peptide alone (histology) (P. acnes [7]): did not affect ear thickness or inflammation
- erythema or ear swelling, peptide in uninfected ears (P. acnes [7]): no significant changes

SMILES: CC[C@H](C)[C@H](NC(=O)[C@H](CCCCN)NC(=O)[C@H](CO)NC(=O)[C@H](Cc1ccccc1)NC(=O)[C@H](CC(C)C)NC(=O)[C@H](CCCCN)NC(=O)[C@H](CCC(=O)O)NC(=O)[C@H](CC(C)C)NC(=O)[C@H](CCCNC(=N)N)NC(=O)[C@H](CCCCN)NC(=O)[C@H](Cc1ccccc1)NC(=O)[C@@H](NC(=O)[C@H](CCCCN)NC(=O)[C@H](CCCCN)NC(=O)[C@H](C)N)C(C)C)C(=O)N[C@@H](CCC(N)=O)C(=O)N[C@@H](CC(N)=O)C(=O)N[C@@H](CC(=O)O)C(=O)N[C@@H](CCCCN)C(N)=O [HP(2-20)] (H-AKKVFKRLEKLFSKIQNDK-NH2; N-terminus and C-terminus assumed)
- MIC (P. acnes [2]; text summary of Table 1A, strain not named, read-out: MIC value against P. acnes): 0.8 µM (≈ 1.86 µg/mL)
- P. aeruginosa infection induced IL-8 expression (mRNA) (IL-8; 3.2 μM, 24 hours): significantly inhibited
- expression of IL-8, peptide without P. aeruginosa (IL-8; data not shown): did not impact the expression of IL-8
- MIC against M. furfur (M. furfur): < 0.195 µM

SMILES: CC[C@H](C)[C@H](NC(=O)CNC(=O)[C@@H](NC(=O)[C@H](CCCCN)NC(=O)[C@H](CCCCN)NC(=O)[C@H](Cc1ccccc1)NC(=O)[C@H](CC(C)C)NC(=O)[C@H](CCCCN)NC(=O)[C@H](Cc1c[nH]c2ccccc12)NC(=O)[C@@H](N)CCCCN)[C@@H](C)CC)C(=O)NCC(=O)N[C@@H](CCCCN)C(=O)N[C@@H](Cc1ccccc1)C(=O)N[C@@H](CC(C)C)C(=O)N[C@@H](Cc1c[nH]cn1)C(=O)N[C@@H](CO)C(=O)N[C@@H](C)C(=O)N[C@@H](CCCCN)C(=O)N[C@@H](CCCCN)C(=O)N[C@@H](Cc1ccccc1)C(N)=O [CA-MA] (H-KWKLFKKIGIGKFLHSAKKF-NH2)
- MIC against P. aeruginosa (ATCC19660) [1]: 1.562 µM (≈ 3.76 µg/mL)

SMILES: CC[C@H](C)[C@H](NC(=O)[C@H](CCCCN)NC(=O)[C@H](CCC(=O)O)NC(=O)[C@H](CCCCN)NC(=O)[C@H](CO)NC(=O)[C@H](CCCCN)NC(=O)[C@H](CCCNC(=N)N)NC(=O)[C@H](Cc1ccccc1)NC(=O)[C@H](Cc1ccccc1)NC(=O)[C@H](CC(=O)O)NC(=O)CNC(=O)[C@H](CC(C)C)NC(=O)[C@@H](N)CC(C)C)C(=O)NCC(=O)N[C@@H](CCCCN)C(=O)N[C@@H](CCC(=O)O)C(=O)N[C@@H](Cc1ccccc1)C(=O)N[C@@H](CCCCN)C(=O)N[C@@H](CCCNC(=N)N)C(=O)N[C@H](C(=O)N[C@H](C(=O)N[C@@H](CCC(N)=O)C(=O)N[C@@H](CCCNC(=N)N)C(=O)N[C@H](C(=O)N[C@@H](CCCCN)C(=O)N[C@@H](CC(=O)O)C(=O)N[C@@H](Cc1ccccc1)C(=O)N[C@@H](CC(C)C)C(=O)N[C@@H](CCCNC(=N)N)C(=O)N[C@@H](CC(N)=O)C(=O)N[C@@H](CC(C)C)C(=O)N[C@H](C(=O)N1CCC[C@H]1C(=O)N[C@@H](CCCNC(=N)N)C(=O)N[C@H](C(=O)N[C@@H](CCC(=O)O)C(=O)N[C@@H](CO)C(=O)O)[C@@H](C)O)C(C)C)[C@@H](C)CC)C(C)C)[C@@H](C)CC [LL37]
- MIC against P. aeruginosa [4, 11]: >32 µg/mL
- MIC against P. aeruginosa [4, 10]: >32 µg/mL

SMILES: CC(C)(O/N=C(\C(=O)N[C@@H]1C(=O)N2C(C(=O)[O-])=C(C[n+]3ccccc3)CS[C@H]12)c1csc(N)n1)C(=O)O [Ceftazidime, ceftazidime]
- MIC against P. aeruginosa [4, 10]: >32 µg/mL
- MIC [5]: > 32 µg/mL

SMILES: CC[C@H](C)[C@H](NC(=O)CN)C(=O)NCC(=O)N[C@@H](C)C(=O)N[C@H](C(=O)N[C@@H](CC(C)C)C(=O)N[C@@H](CCCCN)C(=O)N[C@H](C(=O)N[C@@H](CC(C)C)C(=O)N[C@H](C(=O)N[C@H](C(=O)NCC(=O)N[C@@H](CC(C)C)C(=O)N1CCC[C@H]1C(=O)N[C@@H](C)C(=O)N[C@@H](CC(C)C)C(=O)N[C@H](C(=O)N[C@@H](CO)C(=O)N[C@@H](Cc1c[nH]c2ccccc12)C(=O)N[C@H](C(=O)N[C@@H](CCCCN)C(=O)N[C@@H](CCCNC(=N)N)C(=O)N[C@@H](CCCCN)C(=O)N[C@@H](CCCNC(=N)N)C(=O)N[C@@H](CCC(N)=O)C(=O)N[C@@H](CCC(N)=O)C(N)=O)[C@@H](C)CC)[C@@H](C)CC)[C@@H](C)O)[C@@H](C)O)C(C)C)C(C)C [Melittin]
- MIC against P. aeruginosa [4, 11]: 8 µg/mL (≈ 2.81 µM)
- MIC against P. aeruginosa [4, 10]: 16 µg/mL (≈ 5.62 µM)

- MIC (P. acnes [2]; [8]): < 0.2 µM
- MIC (P. acnes [2]; [9]): < 0.2 µM
- MIC (S. aureus; ATCC8096, read-out: MIC against S. aureus): > 50 µM
- MIC (S. aureus; ATCC25923, read-out: MIC against S. aureus): > 50 µM
- MIC (S. aureus; ATCC29213, read-out: MIC against S. aureus): > 50 µM
SMILES: CCC[C@@H]1C[C@@H](C(=O)N[C@@H]([C@H]2O[C@H](SC)[C@H](O)[C@@H](O)[C@H]2O)[C@H](C)Cl)N(C)C1 [Clindamycin, clindamycin]

— patent US9278121B2, “Methods of use for an antimicrobial peptide” (priority 2013, dated 2016)
